Laboratory results from US6355799B1, “Substituted benzene compounds, process for their preparation, and herbicidal and defoliant compositions containing them” (ISK Americas Incorporated, priority 1997, dated 2002).

Tests used:
Format in all cases: in vivo
[1] = test system: redroot pigweed (Amaranthus retroflexus, AMARE); assay: Pre-emerge test, greenhouse herbicide activity screening; conditions: pre-emerge, 14 days after application, scale 0-100
How it was run: (§1)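 Plants grown in 10 cm pots of sandy loam mix received acetone-dissolved compounds through a moving flat-fan nozzle. Doses ranged from 15 to 1000 g ai/ha. Pre-emerge pots were seeded one day earlier, post-emerge pots 8–21 days earlier. Fourteen days on, each pot was graded 0–100 for damage.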

[2] = test system: barnyardgrass (Echinochloa crus-galli, ECHCG); assay: as above; conditions: pre-emerge, 14 days after application, scale 0-100
How it was run: as §1

[3] = test system: green foxtail (Setaria viridis, SETVI); assay: as above; conditions: pre-emerge, 14 days after application, scale 0-100
How it was run: as §1

[4] = test system: ivyleaf morningglory (Ipomoea hederacea, IPOHE); assay: as above; conditions: pre-emerge, 14 days after application, scale 0-100
How it was run: as §1

[5] = test system: johnsongrass (Sorghum halepense, SORHA); assay: as above; conditions: pre-emerge, 14 days after application, scale 0-100
How it was run: as §1

[6] = test system: lambsquarters (Chenopodium album, CHEAL); assay: as above; conditions: pre-emerge, 14 days after application, scale 0-100
How it was run: as §1

[7] = test system: large crabgrass (Digitaria sanguinalis, DIGSA); assay: as above; conditions: pre-emerge, 14 days after application, scale 0-100
How it was run: as §1

[8] = test system: sicklepod (Cassia obtusifolia, CASOB); assay: as above; conditions: pre-emerge, 14 days after application, scale 0-100
How it was run: as §1

[9] = test system: velvetleaf (Abutilon theophrasti, ABUTH); assay: as above; conditions: pre-emerge, 14 days after application, scale 0-100
How it was run: as §1

[10] = test system: field corn (Zea mays L., var. Dekalb 535, CORN); assay: Pre-emerge test, crop safety; conditions: pre-emerge, 14 days after application, scale 0-100
How it was run: (§2)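 Rating: 0–100 visual injury, 14 DAA. Application: acetone, 187 l/ha, 15–1000 g ai/ha, flat-fan track sprayer with nozzle 40–45 cm above soil or canopy. Post-emerge runs used 0.25% v/v surfactant on 2–3 leaf plants.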

[11] = test system: upland rice (Oryza sp., var. Tebonnet, RICE); assay: Pre-emerge test, crop safety; conditions: pre-emerge, 14 days after application, scale 0-100
How it was run: as §2

[12] = test system: barnyardgrass (Echinochloa crus-galli, ECHCG); assay: Post-emerge test, greenhouse herbicide activity screening; conditions: post-emerge, 14 days after application, rating scale 0-100
How it was run: (§3)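 Sandy loam pots; pre-emerge: sown 1 d pre-spray, surface-watered after, then bottom-watered. Post-emerge: sown 8–21 d before, 2–3 leaf stage, + 0.25% v/v NIS, bottom-watered. Acetone, 187 l/ha track spray, 15–1000 g ai/ha. 0–100 injury score, day 14.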

[13] = test system: green foxtail (Setaria viridis, SETVI); assay: as above; conditions: post-emerge, 14 days after application, rating scale 0-100
How it was run: as §3

[14] = test system: ivyleaf morningglory (Ipomoea hederacea, IPOHE); assay: as above; conditions: post-emerge, 14 days after application, rating scale 0-100
How it was run: as §3

[15] = test system: johnsongrass (Sorghum halepense, SORHA); assay: as above; conditions: post-emerge, 14 days after application, rating scale 0-100
How it was run: as §3

[16] = test system: lambsquarters (Chenopodium album, CHEAL); assay: as above; conditions: post-emerge, 14 days after application, rating scale 0-100
How it was run: as §3

[17] = test system: large crabgrass (Digitaria sanguinalis, DIGSA); assay: as above; conditions: post-emerge, 14 days after application, rating scale 0-100
How it was run: as §3

[18] = test system: redroot pigweed (Amaranthus retroflexus, AMARE); assay: as above; conditions: post-emerge, 14 days after application, rating scale 0-100
How it was run: as §3

[19] = test system: sicklepod (Cassia obtusifolia, CASOB); assay: as above; conditions: post-emerge, 14 days after application, rating scale 0-100
How it was run: as §3

[20] = test system: velvetleaf (Abutilon theophrasti, ABUTH); assay: as above; conditions: post-emerge, 14 days after application, rating scale 0-100
How it was run: as §3

[21] = test system: field corn (Zea mays L., var. Dekalb 535, CORN); assay: Post-emerge test, crop safety; conditions: post-emerge, 14 days after application, rating scale 0-100
How it was run: (§4)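 Each test used a mechanized track sprayer delivering 187 l/ha of acetone solution at 15–1000 g ai/ha. Post-emerge foliage at 2–3 leaves was treated with added 0.25% v/v non-ionic surfactant and bottom-watered only. Injury was assessed on day 14, where 100 means total kill.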

[22] = test system: upland rice (Oryza sp., var. Tebonnet, RICE); assay: Post-emerge test, crop safety; conditions: post-emerge, 14 days after application, rating scale 0-100
How it was run: as §4

## COc1c(Cl)cc(F)c(-n2c(=O)cc(C(F)(F)F)n(C)c2=O)c1NC(=O)C=Cc1cccc(Cl)c1 [2-134]
[1]; 63 g ai/ha
  phytotoxicity rating AMARE: 100
[1]; 250 g ai/ha
  phytotoxicity rating AMARE: 100
[2]; 63 g ai/ha
  phytotoxicity rating ECHCG: 0
[2]; 250 g ai/ha
  phytotoxicity rating ECHCG: 30
[3]; 63 g ai/ha
  phytotoxicity rating SETVI: 35
[3]; 250 g ai/ha
  phytotoxicity rating SETVI: 80
[4]; 63 g ai/ha
  phytotoxicity rating IPOHE: 20
[4]; 250 g ai/ha
  phytotoxicity rating IPOHE: 30
[5]; 63 g ai/ha
  phytotoxicity rating SORHA: 0
[5]; 250 g ai/ha
  phytotoxicity rating SORHA: 30
[6]; 63 g ai/ha
  phytotoxicity rating CHEAL: 100
[6]; 250 g ai/ha
  phytotoxicity rating CHEAL: 100
[7]; 63 g ai/ha
  phytotoxicity rating DIGSA: 20
[7]; 250 g ai/ha
  phytotoxicity rating DIGSA: 90
[8]; 63 g ai/ha
  phytotoxicity rating CASOB: 10
[8]; 250 g ai/ha
  phytotoxicity rating CASOB: 30
[9]; 63 g ai/ha
  phytotoxicity rating ABUTH: 60
[9]; 250 g ai/ha
  phytotoxicity rating ABUTH: 80
[10]; 63 g ai/ha
  phytotoxicity rating CORN (crop damage): 0
[10]; 250 g ai/ha
  phytotoxicity rating CORN (crop damage): 0
[11]; 63 g ai/ha
  phytotoxicity rating RICE (crop damage): 10
[11]; 250 g ai/ha
  phytotoxicity rating RICE (crop damage): 20
[12]; 63 g ai/ha
  ECHCG phytotoxicity rating: 10
[12]; 250 g ai/ha
  ECHCG phytotoxicity rating: 30
[13]; 63 g ai/ha
  SETVI phytotoxicity rating: 20
[13]; 250 g ai/ha
  SETVI phytotoxicity rating: 60
[14]; 63 g ai/ha
  IPOHE phytotoxicity rating: 100
[14]; 250 g ai/ha
  IPOHE phytotoxicity rating: 100
[15]; 63 g ai/ha
  SORHA phytotoxicity rating: 10
[15]; 250 g ai/ha
  SORHA phytotoxicity rating: 30
[16]; 63 g ai/ha
  CHEAL phytotoxicity rating: 100
[16]; 250 g ai/ha
  CHEAL phytotoxicity rating: 100
[17]; 63 g ai/ha
  DIGSA phytotoxicity rating: 0
[17]; 250 g ai/ha
  DIGSA phytotoxicity rating: 30
[18]; 63 g ai/ha
  AMARE phytotoxicity rating: 100
[18]; 250 g ai/ha
  AMARE phytotoxicity rating: 100
[19]; 63 g ai/ha
  CASOB phytotoxicity rating: 90
[19]; 250 g ai/ha
  CASOB phytotoxicity rating: 100
[20]; 63 g ai/ha
  ABUTH phytotoxicity rating: 100
[20]; 250 g ai/ha
  ABUTH phytotoxicity rating: 100
[21]; 63 g ai/ha
  CORN phytotoxicity rating (crop damage): 10
[21]; 250 g ai/ha
  CORN phytotoxicity rating (crop damage): 20
[22]; 63 g ai/ha
  RICE phytotoxicity rating (crop damage): 50
[22]; 250 g ai/ha
  RICE phytotoxicity rating (crop damage): 80

## CCOC(=O)C(C)Oc1ccc(-n2c(=O)cc(C(F)(F)F)n(C)c2=O)c(NC(=O)c2ccc3ccccc3c2)c1 (stereo not shown) [2-146]
[1]; 63 g ai/ha
  phytotoxicity rating AMARE: 30
[1]; 250 g ai/ha
  phytotoxicity rating AMARE: 80
[2]; 63 g ai/ha
  phytotoxicity rating ECHCG: 0
[2]; 250 g ai/ha
  phytotoxicity rating ECHCG: 0
[3]; 63 g ai/ha
  phytotoxicity rating SETVI: 0
[3]; 250 g ai/ha
  phytotoxicity rating SETVI: 0
[4]; 63 g ai/ha
  phytotoxicity rating IPOHE: 40
[4]; 250 g ai/ha
  phytotoxicity rating IPOHE: 20
[5]; 63 g ai/ha
  phytotoxicity rating SORHA: 0
[5]; 250 g ai/ha
  phytotoxicity rating SORHA: 0
[6]; 63 g ai/ha
  phytotoxicity rating CHEAL: 90
[6]; 250 g ai/ha
  phytotoxicity rating CHEAL: 100
[7]; 63 g ai/ha
  phytotoxicity rating DIGSA: 0
[7]; 250 g ai/ha
  phytotoxicity rating DIGSA: 0
[8]; 63 g ai/ha
  phytotoxicity rating CASOB: 20
[8]; 250 g ai/ha
  phytotoxicity rating CASOB: 0
[9]; 63 g ai/ha
  phytotoxicity rating ABUTH: 70
[9]; 250 g ai/ha
  phytotoxicity rating ABUTH: 10
[10]; 63 g ai/ha
  phytotoxicity rating CORN (crop damage): 0
[10]; 250 g ai/ha
  phytotoxicity rating CORN (crop damage): 0
[11]; 63 g ai/ha
  phytotoxicity rating RICE (crop damage): 0
[11]; 250 g ai/ha
  phytotoxicity rating RICE (crop damage): 0
[12]; 63 g ai/ha
  ECHCG phytotoxicity rating: 0
[12]; 250 g ai/ha
  ECHCG phytotoxicity rating: 0
[13]; 63 g ai/ha
  SETVI phytotoxicity rating: 0
[13]; 250 g ai/ha
  SETVI phytotoxicity rating: 0
[14]; 63 g ai/ha
  IPOHE phytotoxicity rating: 40
[14]; 250 g ai/ha
  IPOHE phytotoxicity rating: 50
[15]; 63 g ai/ha
  SORHA phytotoxicity rating: 0
[15]; 250 g ai/ha
  SORHA phytotoxicity rating: 0
[16]; 63 g ai/ha
  CHEAL phytotoxicity rating: 30
[16]; 250 g ai/ha
  CHEAL phytotoxicity rating: 40
[17]; 63 g ai/ha
  DIGSA phytotoxicity rating: 0
[17]; 250 g ai/ha
  DIGSA phytotoxicity rating: 0
[18]; 63 g ai/ha
  AMARE phytotoxicity rating: 30
[18]; 250 g ai/ha
  AMARE phytotoxicity rating: 30
[19]; 63 g ai/ha
  CASOB phytotoxicity rating: 20
[19]; 250 g ai/ha
  CASOB phytotoxicity rating: 50
[20]; 63 g ai/ha
  ABUTH phytotoxicity rating: 70
[20]; 250 g ai/ha
  ABUTH phytotoxicity rating: 75
[21]; 63 g ai/ha
  CORN phytotoxicity rating (crop damage): 10
[21]; 250 g ai/ha
  CORN phytotoxicity rating (crop damage): 5
[22]; 63 g ai/ha
  RICE phytotoxicity rating (crop damage): 10
[22]; 250 g ai/ha
  RICE phytotoxicity rating (crop damage): 10
